The results in this text go back to patent US7109380B2, “Cyclopentenedione antifungal compounds and methods for their use” (The University of Mississippi, priority 2004, dated 2006).

What all share (assay): 96-well microtiter fungal growth assay
What all share (type): cell-based

One test deals with Phomopsis viticola. From the text:
(§1) Pathogen collection. Isolates of Colletotrichum acutatum Simmonds, Colletotrichum fragariae Brooks, and Colletotrichum gloeosporioides (Penz.) Penz. & Sacc. in Penz. were obtained from B. J. Smith, USDA, ARS, Small Fruit Research Station, Poplarville, Mass. Colletotrichum fragariae (isolate CF63), C. acutatum (isolate CAGoff), and C. gloeosporioides (isolate CG162) were used for all pathogen and bioautography studies. Isolate CF63 is one of the most virulent isolates at infecting strawberry plants and inducing both crown and fruit rot (Smith and Black, 1990). CF63, CAGoff, and CG162 were used as standard test isolates because of our extensive knowledge of these isolates and their known fungicide sensitivity profiles in both bioautography and microtiter formats. The three Colletotrichum species were isolated from strawberry (Fragaria xananassa Duchesne). Botrytis cinerea Pers.:Fr, was isolated from commercial grape (Vitis vinifera L.) and Fusarium oxysporum Schlechtend:Fr from orchid (Cynoches sp.) by David E. Wedge, USDA ARS Natural Products Utilization Research Unit. Phomopsis viticola (Sacc.) and P. obscurans (Ellis & Everh.) Sutton were from Mike A. Ellis, Ohio State University, Wooster, Ohio. Fungi were grown on potato-dextrose agar (PDA, Difco, Detroit Mich.) in 9 cm petri dishes and incubated in a growth chamber at 24±2° C. and under cool-white fluorescent lights ([…]·m^−2·sec^−1 light) with 12-h photoperiod.
(§2) Inoculum preparation. Conidia were harvested from 7–10 day-old cultures by flooding plates with 5 mL of sterile distilled water and dislodging conidia by softly brushing the colonies with an L-shaped glass rod. Conidial suspensions were filtered through sterile miracloth (Calbiochem-Novabiochem Corp., La Jolla Calif.) to remove mycelia. Conidia concentrations were determined photometrically, from a standard curve based on the absorbance at 625 nm and suspensions were then adjusted with sterile distilled water to a concentration of 1.0×10^6 conidia/mL.
(§3) Microtiter assay. A standardized 96-well microtiter plate assay developed for discovery of natural product fungicidal agents. A 96-well microtiter assay was used to determine sensitivity of B. cinerea, C. acutatum, C. fragariae, C. gloeosporioides, F. oxysporum, Phomopsis viticola, and P. obscurans to the various antifungal agents in comparison with known fungicidal standards. Vinclozolin, captan, and thiabendazole, which represent three different modes of action, were used as standards in this experiment. Each fungus was challenged in a dose-response format using test compounds where the final treatment concentrations were 0.3, 3.0 and 30.0 μM. Microtiter plates (Nunc MicroWell, untreated; Roskilde, Denmark) were covered with a plastic lid and incubated in a growth chamber at 24±1 C and 12 h photoperiod under 60±5 μmol light. Growth was then evaluated by measuring absorbance of each well at 620 nm using a microplate photometer (Packard Spectra Count, Packard Instrument Co., Downers Grove, Ill.).
(§4) Microbioassay Experimental Design. Chemical sensitivity of each fungus 96-well microtiter assay is used to determine sensitivity of B. cinerea, C. acutatum, C. fragariae, C. gloeosporioides, F. oxysporum, Phomopsis viticola, and P. obscurans. Each chemical is evaluated in duplicate at each dose (0.3, 3.0 and 30.0 μM) and repeated twice in time. Sixteen wells containing broth and inoculum serves as positive controls, eight wells containing solvent at the appropriate concentration and broth without inoculum are used as negative controls. […] Treatments are arranged as a split-plot design replicated twice in time. Whole-plots were fungal isolates and sub-plots are chemicals. Each dose level and response time is analyzed separately. The SAS system's analysis of variance procedure (Statistical Analysis System, Cary, N.C.) is used to identify significant factors and Fisher's protected LSD is used to separate means.

Another test deals with Phomopsis obscurans.
Description: as §1, §2, §3, §4

Test [1] deals with Colletotrichum gloeosporioides.
Description: as §1, §2, §3
as §4, with “controls. Mean absorbance values and standard errors is used to evaluate fungal growth at 48 hrs and 72 hrs except for P. obscurans and P. viticola the data are recorded at 120 hrs.” for “controls.”, “The SAS system's analysis of variance procedure (Statistical Analysis System, Cary, N.C.) is used to identify significant factors and Fisher's protected LSD is used to separate means.” left out

The subject of a further test is Colletotrichum acutatum.
Description: as §1, §2, §3
as §4, with “controls. Mean absorbance values and standard errors is used to evaluate fungal growth at 48 hrs and 72 hrs except for P. obscurans and P. viticola the data are recorded at 120 hrs.” for “controls.”, “The SAS system's analysis of variance procedure (Statistical Analysis System, Cary, N.C.) is used to identify significant factors and Fisher's protected LSD is used to separate means.” left out

For the next test, the system named is Colletotrichum fragariae.
Description: as §1, §2, §3
as §4, with “controls. Mean absorbance values and standard errors is used to evaluate fungal growth at 48 hrs and 72 hrs except for P. obscurans and P. viticola the data are recorded at 120 hrs.” for “controls.”, “The SAS system's analysis of variance procedure (Statistical Analysis System, Cary, N.C.) is used to identify significant factors and Fisher's protected LSD is used to separate means.” left out

The subject of the next test is Botrytis cinerea.
Description: as §1, §2, §3
as §4, with “controls. Mean absorbance values and standard errors is used to evaluate fungal growth at 48 hrs and 72 hrs except for P. obscurans and P. viticola the data are recorded at 120 hrs.” for “controls.”, “The SAS system's analysis of variance procedure (Statistical Analysis System, Cary, N.C.) is used to identify significant factors and Fisher's protected LSD is used to separate means.” left out

The test system of the next test is Fusarium oxysporum.
Description: as §1, §2, §3
as §4, with “controls. Mean absorbance values and standard errors is used to evaluate fungal growth at 48 hrs and 72 hrs except for P. obscurans and P. viticola the data are recorded at 120 hrs.” for “controls.”, “The SAS system's analysis of variance procedure (Statistical Analysis System, Cary, N.C.) is used to identify significant factors and Fisher's protected LSD is used to separate means.” left out
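For Mean percent fungal growth inhibition of Colletotrichum acutatum in this document: percent relative to untreated positive growth controls.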
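For Mean percent fungal growth inhibition of Colletotrichum fragariae in this document: percent relative to untreated positive growth controls.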
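For Mean percent fungal growth inhibition of Colletotrichum gloeosporoides in this document: percent relative to untreated positive growth controls.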
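For Mean percent fungal growth inhibition of Phomopsis viticola in this document: percent relative to untreated positive growth controls.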

As to `CO/C=C(/C(=O)OC)c1ccccc1Oc1cc(Oc2ccccc2C#N)ncn1` [Azoxystrobin], the “Mean percent fungal growth inhibition of Phomopsis viticola” value in the test with Phomopsis viticola (0.3 μm, 120 hrs) was −29.5 ± 45.0%; in the test with Phomopsis viticola (0.3 μm, 144 hrs), −73.4 ± 16.0%; with Phomopsis viticola (3.0 μm, 120 hrs), −124.5 ± 33.0%; in the test on Phomopsis viticola (30 μm, 120 hrs), −154.1 ± 39.4%; with Phomopsis viticola (30 μm, 144 hrs) it was −97.9 ± 1.3%. Also, the “Percent change in fungal growth vs control (negative = inhibition)” value with Phomopsis obscurans (0.3 μm, 120 hrs) was −73.2 ± 6.7%; with Phomopsis obscurans (0.3 μm, 144 hrs) it was −70.2 ± 7.0%; in the test on Phomopsis obscurans (3.0 μm, 120 hrs), −90.9 ± 6.5%; in the test on Phomopsis obscurans (3.0 μm, 144 hrs), −87.5 ± 5.3%; in the test with Phomopsis obscurans (30 μm, 120 hrs), −99.3 ± 0.5%; in the test on Phomopsis obscurans (30 μm, 144 hrs), −98.2 ± 0.6%. The “Mean percent fungal growth inhibition of Colletotrichum gloeosporoides” value in test [1] (0.3 μm, 48 hrs) was −91.2 ± 2.1%; in test [1] (0.3 μm, 72 hrs), −71.0 ± 1.4%; in test [1] (3.0 μm, 48 hrs), −96.3 ± 0.9%; in test [1] (3.0 μm, 72 hrs), −87.6 ± 2.0%; in test [1] (30 μm, 48 hrs), −97.7 ± 0.5%; in test [1] (30 μm, 72 hrs) it was −89.8 ± 1.1%. Further, the “Mean percent fungal growth inhibition of Colletotrichum acutatum” value is −75.1 ± 1.8% in the test on Colletotrichum acutatum (0.3 μm, 48 hrs); −46.0 ± 1.4% in the test with Colletotrichum acutatum (0.3 μm, 72 hrs); −89.2 ± 1.8% with Colletotrichum acutatum (3.0 μm, 48 hrs); −77.4 ± 1.6% with Colletotrichum acutatum (3.0 μm, 72 hrs); −94.3 ± 1.1% in the test on Colletotrichum acutatum (30 μm, 48 hrs); −84.1 ± 0.8% in the test on Colletotrichum acutatum (30 μm, 72 hrs). The “Mean percent fungal growth inhibition of Colletotrichum fragariae” value in the test on Colletotrichum fragariae (0.3 μm, 48 hrs) is recorded as −68.8 ± 4.0%; in the test with Colletotrichum fragariae (0.3 μm, 72 hrs), −33.5 ± 17.4%; with Colletotrichum fragariae (3.0 μm, 48 hrs), −78.9 ± 4.4%; in the test with Colletotrichum fragariae (3.0 μm, 72 hrs), −80.6 ± 4.8%; in the test with Colletotrichum fragariae (30 μm, 48 hrs), −82.0 ± 4.9%; in the test with Colletotrichum fragariae (30 μm, 72 hrs), −86.4 ± 4.5%. The “Mean percent fungal growth inhibition of Botrytis cinerea” value in the test with Botrytis cinerea (0.3 μm, 48 hrs) was −30.4 ± 40.8%; in the test with Botrytis cinerea (0.3 μm, 72 hrs) it was −67.3 ± 7.6%; with Botrytis cinerea (3.0 μm, 48 hrs), −45.8 ± 32.5%; in the test with Botrytis cinerea (3.0 μm, 72 hrs), −79.8 ± 3.6%; in the test with Botrytis cinerea (30 μm, 48 hrs), −58.3 ± 26.5%; with Botrytis cinerea (30 μm, 72 hrs), −89.1 ± 2.1%. The “Mean percent fungal growth inhibition of Fusarium oxysporum” value in the test on Fusarium oxysporum (0.3 μm, 48 hrs) is listed as −13.0 ± 6.0%; with Fusarium oxysporum (0.3 μm, 72 hrs), 3.8 ± 3.6%; in the test with Fusarium oxysporum (3.0 μm, 48 hrs), −66.4 ± 1.4%; with Fusarium oxysporum (3.0 μm, 72 hrs) it was −40.1 ± 3.5%; in the test on Fusarium oxysporum (30 μm, 48 hrs) it was −87.3 ± 0.6%; in the test with Fusarium oxysporum (30 μm, 72 hrs), −64.6 ± 0.8%.

For the molecule `CCCCNC(=O)n1c(NC(=O)OC)nc2ccccc21` [benomyl], the IC50 in the test on Phomopsis obscurans (Paraphomopsis obscurans, 120 h, read-out: IC50 (growth inhibition)) is less than 6.25 µM.

One may read the IC50 as the concentration needed to halve the response being measured.
